Measurements reported in patent US9951028B2, “Agricultural chemicals” (REDAG CROP PROTECTION LTD, priority 2013, dated 2018).

What was measured:
Assay type in all cases: in vivo
[1] = system: A. retroflexus, A. theophrasti, C. bursa pastoris; assay: Herbicidal efficacy screen, text summary of table 2 over all target weed species; conditions: certain weed species, after 1 day
Text: (§1) Certain compounds of the invention were screened for herbicidal efficacy against target plants: Amaranthus retroflexus (redroot pigweed), Abutilon theophrasti (China Jute): Capsella bursa-pastoris, (shepherd's-purse) Echinochloa crus-galli, Hordeum vulgare (Barley),

[2] = system: Abutilon theophrasti (China Jute); assay: Herbicidal efficacy screen, corrected necrosis; conditions: for control over A. theophrasti: after 10 days, Table 5
[3] = system: Capsella bursa-pastoris, (shepherd's-purse); assay: Herbicidal efficacy screen, corrected necrosis
[4] = system: Amaranthus retroflexus (redroot pigweed); assay: Herbicidal efficacy screen, corrected necrosis
[5] = system: A. theophrasti, E. crus galli, H. vulgare; assay: Herbicidal efficacy screen, summary of tables 3-5 over all target weed species; conditions: table 3
Text: as §1

Hordeum vulgare (Barley) = assay: Herbicidal efficacy screen, corrected necrosis; conditions: Table 5
Echinochloa crus-galli = assay: Herbicidal efficacy screen, corrected necrosis; conditions: Table 5; for control over E. crus galli: after 10 days
[6] = 6.25 g/ha, day 1 post application
[7] = 6.25 g/ha, day 7 post application
[8] = 12.5 g/ha, day 1 post application
[9] = 12.5 g/ha, day 7 post application
[10] = 25 g/ha, day 1 post application
[11] = 25 g/ha, day 7 post application
[12] = 50 g/ha, day 1 post application
[13] = 50 g/ha, day 7 post application
[14] = 100 g/ha, day 1 post application
[15] = 100 g/ha, day 7 post application

Structure (SMILES): CC(C)C(C)S(=O)(=O)NC(=O)c1cc(-n2c(=O)cc(C(F)(F)F)n(C)c2=O)c(F)cc1Cl (stereo not shown) [Compound 26, 2-Chloro-N-(1,2-dimethylpropylsulfonyl)-4-fluoro-5-[3-methyl-2,6-dioxo-4-(trifluoromethyl)pyrimidin-1-yl]benzamide]
- control compared with the reference compound (saflufenacil) [1]: better control
- Average of corrected necrosis [2, 6]: C (C represents a percentage increase in necrosis relative to the control of 0.1-50)
- Average of corrected necrosis [2, 7]: A (A represents a percentage inhibition of 80-100)
- Average of corrected necrosis [2, 8]: 0%
- Average of corrected necrosis [2, 9]: A (A represents a percentage inhibition of 80-100)
- Average of corrected necrosis [2, 10]: C (C represents a percentage increase in necrosis relative to the control of 0.1-50)
- Average of corrected necrosis [2, 11]: A (A represents a percentage inhibition of 80-100)
- Average of corrected necrosis [2, 12]: C (C represents a percentage increase in necrosis relative to the control of 0.1-50)
- Average of corrected necrosis [2, 13]: A (A represents a percentage inhibition of 80-100)
- Average of corrected necrosis [2, 14]: B (B represents a percentage inhibition of 50-80)
- Average of corrected necrosis [2, 15]: A (A represents a percentage inhibition of 80-100)
- Average of corrected necrosis [3, 6]: C (C represents a percentage increase in necrosis relative to the control of 0.1-50)
- Average of corrected necrosis [3, 7]: A (A represents a percentage inhibition of 80-100)
- Average of corrected necrosis [3, 8]: C (C represents a percentage increase in necrosis relative to the control of 0.1-50)
- Average of corrected necrosis [3, 9]: 0%
- Average of corrected necrosis [3, 10]: C (C represents a percentage increase in necrosis relative to the control of 0.1-50)
- Average of corrected necrosis [3, 11]: A (A represents a percentage inhibition of 80-100)
- Average of corrected necrosis [3, 12]: C (C represents a percentage increase in necrosis relative to the control of 0.1-50)
- Average of corrected necrosis [3, 13]: A (A represents a percentage inhibition of 80-100)
- Average of corrected necrosis [3, 14]: C (C represents a percentage increase in necrosis relative to the control of 0.1-50)
- Average of corrected necrosis [3, 15]: A (A represents a percentage inhibition of 80-100)
- Average of corrected necrosis [4, 6]: C (C represents a percentage increase in necrosis relative to the control of 0.1-50)
- Average of corrected necrosis [4, 7]: A (A represents a percentage inhibition of 80-100)
- Average of corrected necrosis [4, 8]: C (C represents a percentage increase in necrosis relative to the control of 0.1-50)
- Average of corrected necrosis [4, 9]: A (A represents a percentage inhibition of 80-100)
- Average of corrected necrosis [4, 10]: C (C represents a percentage increase in necrosis relative to the control of 0.1-50)
- Average of corrected necrosis [4, 11]: A (A represents a percentage inhibition of 80-100)
- Average of corrected necrosis [4, 12]: C (C represents a percentage increase in necrosis relative to the control of 0.1-50)
- Average of corrected necrosis [4, 13]: A (A represents a percentage inhibition of 80-100)
- Average of corrected necrosis [4, 14]: C (C represents a percentage increase in necrosis relative to the control of 0.1-50)
- Average of corrected necrosis [4, 15]: A (A represents a percentage inhibition of 80-100)

Structure (SMILES): C#CC(c1ccc(F)cc1)C(CC(=O)OCC)c1c(F)cccc1F (stereo not shown) [Compound 37, Ethyl 3-(2,6-difluorophenyl)-4-(4-fluorophenyl)hex-5-ynoate]
- control compared with prior art compounds 27 and 27a [5]: significantly better control
- control over all three weed species [5]: excellent control

Structure (SMILES): CSc1c(C(F)(F)F)ccc(CNc2nonc2C)c1C [Compound 47, 4-Methyl-N-[[2-methyl-3-methylsulfanyl-4-(trifluoromethyl)phenyl]methyl]-1,2,5-oxadiazol-3-amine]
- control over H. vulgare (Hordeum vulgare (Barley)): good control
- control of H. vulgare relative to the reference compound 48 (Hordeum vulgare (Barley); at low dosages): improved control
- control over A. theophrasti [2]: good control
- control over E. crus galli (Echinochloa crus-galli): good control
- control of E. crus galli relative to the reference compound 48 (Echinochloa crus-galli; at low dosages): improved control

Structure (SMILES): CSc1c(C(F)(F)F)ccc(C(=O)Nc2nonc2C)c1C [Compound 48, 2-Methyl-N-(4-methyl-1,2,5-oxadiazol-3-yl)-3-methylsulfanyl-4-(trifluoromethyl)benzamide, reference compound]
- control over A. theophrasti [2]: good control
- control over E. crus galli (Echinochloa crus-galli): good control
